Columns and labels:
Assay in all cases: relative viability (nuclei count vs DMSO), 5 days (fraction); higher = more cells survive
NCI-H2085 = details: first compound 0.2 µM
Outline: (§1)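 Nuclei were stained with Hoechst during a one-step fixation (final 0.05% Triton X-100, 1% formaldehyde, 1 ug/ml Hoechst) carried out 5 days after dosing, then counted on 4× images. The cells, lung cancer lines in 1536-well plates, had been dosed by pin tool the day after seeding with one drug alone or a fixed anchor-drug dose plus five library-drug doses (not always all listed) in √10 steps. Relative viability is the nuclei count in treated wells divided by that in vehicle wells, and each value is the median of duplicate plates.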

NCI-H2087 = tested on: NCI-H2087
Outline: as §1

NCI-H23 = tested on: NCI-H23
Outline: as §1

NCI-H3122 = tested on: NCI-H3122
Outline: as §1

NCI-H322M = tested on: NCI-H322M
Outline: as §1

NCI-H358 = tested on: NCI-H358
Outline: as §1

NCI-H460 = tested on: NCI-H460
Outline: as §1

NCI-H522 = tested on: NCI-H522
Outline: as §1

NCI-H596 = tested on: NCI-H596
Outline: as §1

NCI-H650 = tested on: NCI-H650
Outline: as §1

PC-3 [JPC-3] = tested on: PC-3 [JPC-3]
Outline: as §1

SK-LU-1 = tested on: SK-LU-1
Outline: as §1

Q: With CCNC(=O)c1noc(-c2cc(C(C)C)c(O)cc2O)c1-c1ccc(CN2CCOCC2)cc1 [Luminespib] + COc1cccc2cc(-c3nc([C@H]4CC[C@H](C(=O)O)CC4)n4ncnc(N)c34)[nH]c12 [OSI-027] (partner 0.5 µM) as the molecule, how does the relative viability (NCI-H2085) read?
A: 0.233

Q: What about the relative viability (NCI-H2087; first compound 0.002 µM) of the same molecule?
A: 0.553

Q: What about the relative viability (NCI-H2087; first compound 0.006325 µM) of the same molecule?
A: 0.454

Q: And the relative viability (NCI-H2087; first compound 0.02 µM)?
A: 0.157

Q: And the relative viability (NCI-H2087; first compound 0.06325 µM)?
A: 0.125

Q: What about the relative viability (NCI-H2087; first compound 0.2 µM) of the same molecule?
A: 0.0972

Q: What about the relative viability (NCI-H23; first compound 0.002 µM) of the same molecule?
A: 0.503

Q: What about the relative viability (NCI-H23; first compound 0.006325 µM) of the same molecule?
A: 0.508

Q: What about the relative viability (NCI-H23; first compound 0.02 µM) of the same molecule?
A: 0.322

Q: And the relative viability (NCI-H23; first compound 0.06325 µM)?
A: 0.133

Q: And the relative viability (NCI-H23; first compound 0.2 µM)?
A: 0.136

Q: And the relative viability (NCI-H3122; first compound 0.002 µM)?
A: 1.01

Q: What about the relative viability (NCI-H3122; first compound 0.006325 µM) of the same molecule?
A: 0.787

Q: What about the relative viability (NCI-H3122; first compound 0.02 µM) of the same molecule?
A: 0.142

Q: What about the relative viability (NCI-H3122; first compound 0.06325 µM) of the same molecule?
A: 0.114

Q: And the relative viability (NCI-H3122; first compound 0.2 µM)?
A: 0.105

Q: And the relative viability (NCI-H322M; first compound 0.002 µM)?
A: 0.564

Q: What about the relative viability (NCI-H322M; first compound 0.006325 µM) of the same molecule?
A: 0.503

Q: What about the relative viability (NCI-H322M; first compound 0.02 µM) of the same molecule?
A: 0.467

Q: And the relative viability (NCI-H322M; first compound 0.06325 µM)?
A: 0.278

Q: What about the relative viability (NCI-H322M; first compound 0.2 µM) of the same molecule?
A: 0.312

Q: What about the relative viability (NCI-H358; first compound 0.002 µM) of the same molecule?
A: 0.9

Q: And the relative viability (NCI-H358; first compound 0.006325 µM)?
A: 0.747

Q: What about the relative viability (NCI-H358; first compound 0.02 µM) of the same molecule?
A: 0.362

Q: And the relative viability (NCI-H358; first compound 0.06325 µM)?
A: 0.0472

Q: And the relative viability (NCI-H358; first compound 0.2 µM)?
A: 0.0538

Q: What about the relative viability (NCI-H460; first compound 0.002 µM) of the same molecule?
A: 0.702

Q: And the relative viability (NCI-H460; first compound 0.006325 µM)?
A: 0.586

Q: What about the relative viability (NCI-H460; first compound 0.02 µM) of the same molecule?
A: 0.0482

Q: And the relative viability (NCI-H460; first compound 0.06325 µM)?
A: 0.0153

Q: And the relative viability (NCI-H460; first compound 0.2 µM)?
A: 0.0165

Q: And the relative viability (NCI-H522; first compound 0.002 µM)?
A: 0.687

Q: And the relative viability (NCI-H522; first compound 0.006325 µM)?
A: 0.732

Q: And the relative viability (NCI-H522; first compound 0.02 µM)?
A: 0.615

Q: And the relative viability (NCI-H522; first compound 0.06325 µM)?
A: 0.538

Q: What about the relative viability (NCI-H522; first compound 0.2 µM) of the same molecule?
A: 0.587

Q: What about the relative viability (NCI-H596; first compound 0.002 µM) of the same molecule?
A: 0.797

Q: And the relative viability (NCI-H596; first compound 0.006325 µM)?
A: 0.788

Q: What about the relative viability (NCI-H596; first compound 0.02 µM) of the same molecule?
A: 0.415

Q: And the relative viability (NCI-H596; first compound 0.06325 µM)?
A: 0.642

Q: What about the relative viability (NCI-H596; first compound 0.2 µM) of the same molecule?
A: 0.377

Q: What about the relative viability (NCI-H650; first compound 0.002 µM) of the same molecule?
A: 0.477

Q: What about the relative viability (NCI-H650; first compound 0.006325 µM) of the same molecule?
A: 0.545

Q: What about the relative viability (NCI-H650; first compound 0.02 µM) of the same molecule?
A: 0.378

Q: And the relative viability (NCI-H650; first compound 0.06325 µM)?
A: 0.368

Q: And the relative viability (NCI-H650; first compound 0.2 µM)?
A: 0.109

Q: What about the relative viability (PC-3 [JPC-3]; first compound 0.002 µM) of the same molecule?
A: 0.813

Q: What about the relative viability (PC-3 [JPC-3]; first compound 0.006325 µM) of the same molecule?
A: 0.718

Q: What about the relative viability (PC-3 [JPC-3]; first compound 0.02 µM) of the same molecule?
A: 0.583

Q: What about the relative viability (PC-3 [JPC-3]; first compound 0.06325 µM) of the same molecule?
A: 0.58

Q: And the relative viability (PC-3 [JPC-3]; first compound 0.2 µM)?
A: 0.225

Q: And the relative viability (SK-LU-1; first compound 0.002 µM)?
A: 0.356

Q: What about the relative viability (SK-LU-1; first compound 0.006325 µM) of the same molecule?
A: 0.201

Q: What about the relative viability (SK-LU-1; first compound 0.02 µM) of the same molecule?
A: 0.136

Q: What about the relative viability (SK-LU-1; first compound 0.06325 µM) of the same molecule?
A: 0.0733

Q: What about the relative viability (SK-LU-1; first compound 0.2 µM) of the same molecule?
A: 0.0594

From the supplement of paper PMC10307832
